Laboratory results published in PubChem BioAssay AID2060509 (Molecular Pharmacology Branch, DTP, NCI, 2025).
Values joined by “and” are separate entries in the source; they are usually repeats but may differ in a detail not shown here. Equal entries are not always repeated.

Tested on: 485176-168-R4-J1-PDC spheroids with HUVEC/MSC, viability
Assay: Anticancer human tumor 485176-168-R4-J1-PDC patient-derived pancreatic adenocarcinoma cell line growth inhibition [GQUAD]
Settings: for viability, T/C: stronger effect = lower value
Description: DNA G-quadruplex Stabilizer Agents in Combinations in Complex Spheroids
A high-throughput screen of multi-cell type tumor spheroids was designed to identify active combinations of DNA G-quadruplex stabilizer agents and targeted small molecules. Complex spheroids include a stromal component modeled by human endothelial cells (HUVEC) and fibroblasts modeled by human mesenchymal stem cells (MSCs). The concentration ranges selected for each drug and investigational agent were based upon clinically achievable concentrations if the clinical Cmax of the agent was known.
Compounds. The drugs and investigational agents: pidnarulex (CX-5461; NSC782164), APTO-253 (NSC789042), BRACO-19 (NSC847499), peposertib (NSC802822), ceralasertib (NSC780249), elimusertib (NSC800525), camonsertib (NSC841442), AZD-1390 (NSC803789), olaparib (NSC753686), talazoparib (NSC767125), ART-558 (NSC835418), sotorasib (NSC818433), MRTX-1133 (NSC836407), SN-38 (NSC673596), topotecan (NSC609699), etoposide (NSC141540), doxorubicin (NSC123127), gemcitabine (NSC613327), 5-fluorouracil (NSC19893), paclitaxel (NSC125973), vemurafenib (NSC761431), panobinostat (NSC761190), R-306465 (JNJ-16241199; NSC773264), adavosertib (NSC754352), TP-3654 (NSC805149), carboplatin (NSC241240), KSQ-4279 (NSC840948), and staurosporine (NSC755774) were obtained from the National Cancer Institute (NCI) Developmental Therapeutics Program Chemical Repository (34). The FDA-approved anticancer drug set is available from the NCI Developmental Therapeutics Program. […] The stock solutions were prepared in dimethyl sulfoxide (DMSO, Sigma-Aldrich, St. Louis, MO, cat. D2650) at 800-fold the tested concentration and stored at -70 degrees C prior to their use. All drugs and investigational agents were tested over a range starting from a high concentration at or near the clinical Cmax and decreasing in half-log increments. If the clinical Cmax for an agent had not been determined, the highest concentration tested was 10 microM.
2.3 Cell Culture. All cells were maintained in an incubator at 37 degrees C and 5% CO2 with 95% humidity. The PDC lines were cultured according to standard operating procedures established by the NCI PDMR. All PDCs were thawed and cultured in Matrigel-coated flasks prepared with a working solution of 1X Ham's F-12 nutrient mix, without supplementation (Invitrogen, cat. 11765054), 100 U/mL penicillin-streptomycin (Invitrogen, cat. 15140122), and 2.5% Matrigel (Corning Inc., cat. 354248) for the first three passages. The 857933-349-R-J2-PDC line was cultured in 6C/Colon 1B media, which includes advanced DMEM/F-12 (Thermo Fisher Scientific, cat. 12634028), 10 mM HEPES (Thermo Fisher Scientific, cat. 15630080), 1X GlutaMAX supplement (Thermo Fisher Scientific, cat. 35050061), 0.1 mg/mL primocin (InvivoGen, cat. ant-pm-2), 10% defined fetal bovine serum, heat inactivated (HyClone Laboratories Inc., cat. SH30070.03HI), 50% L-WRN conditioned media (ATCC, cat. CRL-3276), 1.25 mM N-Acetyl-L-cysteine (Sigma-Aldrich, cat. A9165), 10 mM nicotinamide (Sigma-Aldrich, cat. N0636), 1X B-27 supplement (Thermo Fisher Scientific, cat. 17504044), 1X N-2 supplement (Thermo Fisher Scientific, cat. 17502048), 10 microM Y-27632 dihydrochloride (Tocris Bioscience, cat. 1254), and 50 ng/mL human EGF recombinant protein (Thermo Fisher Scientific, cat. PHG0311). The 485176-168-R4-J1-PDC line was cultured in Panc media, which includes all 6C/Colon 1B media components plus 100 ng/mL human FGF-10 (Thermo Fisher Scientific, cat. 100-26), 500 nM SB-431542 (Selleckchem, cat. S1067), and gastrin (Tocris, cat. 3006).
[…]
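Also: spheroids exposed to compounds for seven days before readout.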
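For viability, T/C in this document: percent viability relative to DMSO vehicle control wells as 100%.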

## COc1ncnc(C2CC2)c1-c1ncc2cnn(Cc3ccc(-c4nc(C(F)(F)F)cn4C(C)C)cc3)c2n1
Compound 0.0316 µM
  viability, T/C: 95.3% and 93.3% and 91.2%
Compound 0.1 µM
  viability, T/C: 96.5% and 107% and 90.4%
Compound 0.316 µM
  viability, T/C: 104% and 96.2% and 105%
Compound 1 µM
  viability, T/C: 84.1% and 92.2% and 106%
Compound 3.16 µM
  viability, T/C: 102% and 107% and 93.4%
Compound 10 µM
  viability, T/C: 103% and 106% and 98.5%
Curve of compound
  IC50: > 10000 nM

## CC(C)n1c(=O)n(C)c2cnc3cc(F)c(-c4ccc(OCCCN5CCCCC5)nc4)cc3c21 + Cc1[nH]c2ccc(F)cc2c1-c1nc2c3cccnc3c3ncccc3c2[nH]1
Curve of first compound, second compound 0.0316 µM
  IC50: > 10000 nM
Curve of first compound, second compound 0.1 µM
  IC50: > 10000 nM
Curve of first compound, second compound 0.316 µM
  IC50: > 10000 nM
Curve of first compound, second compound 1 µM
  IC50: > 10000 nM
Curve of first compound, second compound 3.16 µM
  IC50: > 10000 nM
Curve of first compound, second compound 10 µM
  IC50: > 10000 nM
Second compound 0.0316 µM, first compound 0.0316 µM
  viability, T/C: 106%
Second compound 0.0316 µM, first compound 0.1 µM
  viability, T/C: 78.3%
Second compound 0.0316 µM, first compound 0.316 µM
  viability, T/C: 89.2%
Second compound 0.0316 µM, first compound 1 µM
  viability, T/C: 87.8%
Second compound 0.0316 µM, first compound 3.16 µM
  viability, T/C: 85.1%
Second compound 0.0316 µM, first compound 10 µM
  viability, T/C: 71.2%
Second compound 0.1 µM, first compound 0.0316 µM
  viability, T/C: 82.6%
Second compound 0.1 µM, first compound 0.1 µM
  viability, T/C: 103%
Second compound 0.1 µM, first compound 0.316 µM
  viability, T/C: 77.7%
Second compound 0.1 µM, first compound 1 µM
  viability, T/C: 95.6%
Second compound 0.1 µM, first compound 3.16 µM
  viability, T/C: 93.8%
Second compound 0.1 µM, first compound 10 µM
  viability, T/C: 99.2%
Second compound 0.316 µM, first compound 0.0316 µM
  viability, T/C: 92%
Second compound 0.316 µM, first compound 0.1 µM
  viability, T/C: 82.8%
Second compound 0.316 µM, first compound 0.316 µM
  viability, T/C: 91.1%
Second compound 0.316 µM, first compound 1 µM
  viability, T/C: 88.7%
Second compound 0.316 µM, first compound 3.16 µM
  viability, T/C: 80.4%
Second compound 0.316 µM, first compound 10 µM
  viability, T/C: 85.2%
Second compound 1 µM, first compound 0.0316 µM
  viability, T/C: 80.8%
Second compound 1 µM, first compound 0.1 µM
  viability, T/C: 89.6%
Second compound 1 µM, first compound 0.316 µM
  viability, T/C: 81.7%
Second compound 1 µM, first compound 1 µM
  viability, T/C: 84.3%
Second compound 1 µM, first compound 3.16 µM
  viability, T/C: 99.3%
Second compound 1 µM, first compound 10 µM
  viability, T/C: 77.2%
Second compound 3.16 µM, first compound 0.0316 µM
  viability, T/C: 89.2%
Second compound 3.16 µM, first compound 0.1 µM
  viability, T/C: 82.4%
Second compound 3.16 µM, first compound 0.316 µM
  viability, T/C: 84.4%
Second compound 3.16 µM, first compound 1 µM
  viability, T/C: 85%
Second compound 3.16 µM, first compound 3.16 µM
  viability, T/C: 76.8%
Second compound 3.16 µM, first compound 10 µM
  viability, T/C: 64%
Second compound 10 µM, first compound 0.0316 µM
  viability, T/C: 79.1%
Second compound 10 µM, first compound 0.1 µM
  viability, T/C: 78.8%
Second compound 10 µM, first compound 0.316 µM
  viability, T/C: 87.4%
Second compound 10 µM, first compound 1 µM
  viability, T/C: 76.5%
Second compound 10 µM, first compound 3.16 µM
  viability, T/C: 86%
Second compound 10 µM, first compound 10 µM
  viability, T/C: 64.6%

## Cc1[nH]c2ccccc2c1CCNCc1ccc(/C=C/C(=O)NO)cc1
Compound 0.000999 µM
  viability, T/C: 113% and 108% and 97.3%
Compound 0.00316 µM
  viability, T/C: 115% and 82.3% and 88%
Compound 0.00999 µM
  viability, T/C: 94.8% and 93.9% and 87%
Compound 0.0316 µM
  viability, T/C: 81.7% and 86% and 77.5%
Compound 0.0999 µM
  viability, T/C: 89.2% and 50.2% and 66%
Compound 0.316 µM
  viability, T/C: 14.2% and 10.4% and 16.8%
Curve of compound
  IC50: 168 nM and 102 nM and 138 nM

## O=c1[nH]cc(F)c(=O)[nH]1
Compound 0.0316 µM
  viability, T/C: 95.9% and 97.3% and 84.9%
Compound 0.1 µM
  viability, T/C: 85.5% and 91% and 89.7%
Compound 0.316 µM
  viability, T/C: 79.7% and 75.4% and 64%
Compound 1 µM
  viability, T/C: 56.6% and 60.5% and 59.2%
Compound 3.16 µM
  viability, T/C: 48.2% and 46.2% and 45.4%
Compound 10 µM
  viability, T/C: 46.8% and 46.7% and 54.9%
Curve of compound
  IC50: 2610 nM and 2750 nM and > 10000 nM

## CCCS(=O)(=O)Nc1ccc(F)c(C(=O)c2c[nH]c3ncc(-c4ccc(Cl)cc4)cc23)c1F
Compound 0.0316 µM
  viability, T/C: 84.4% and 98.5% and 96.2%
Compound 0.1 µM
  viability, T/C: 94.7% and 85.4% and 64.8%
Compound 0.316 µM
  viability, T/C: 89.7% and 87.6% and 85%
Compound 1 µM
  viability, T/C: 82% and 83.2% and 77%
Compound 3.16 µM
  viability, T/C: 82.2% and 75.4% and 73.2%
Compound 10 µM
  viability, T/C: 71.2% and 70.3% and 66.2%
Curve of compound
  IC50: > 10000 nM
